# Results reported in US20100115832A1, “MOISTURIZING AGENT WITH NUTRIENTS” (priority 2006, published 2010).
# Conditions: research at the DRiWATER lab
structure (smiles),measurement,value
CC(=O)O [acetic acid],effect on gel degradation in soil,will slow gel degradation in soil
